Residues, ends and D or L forms follow the SMILES beside them.
Assays:
[1] = molecular target: T1, Solute carrier family 15 member 2 (Rattus norvegicus, UniProt Q63424); test: Displacement of [14C]Gly-Sar from rat PEPT2 in SKPT0193 C1.2 cells; type: cell-based
T1 sequence (Q63424 whole entry): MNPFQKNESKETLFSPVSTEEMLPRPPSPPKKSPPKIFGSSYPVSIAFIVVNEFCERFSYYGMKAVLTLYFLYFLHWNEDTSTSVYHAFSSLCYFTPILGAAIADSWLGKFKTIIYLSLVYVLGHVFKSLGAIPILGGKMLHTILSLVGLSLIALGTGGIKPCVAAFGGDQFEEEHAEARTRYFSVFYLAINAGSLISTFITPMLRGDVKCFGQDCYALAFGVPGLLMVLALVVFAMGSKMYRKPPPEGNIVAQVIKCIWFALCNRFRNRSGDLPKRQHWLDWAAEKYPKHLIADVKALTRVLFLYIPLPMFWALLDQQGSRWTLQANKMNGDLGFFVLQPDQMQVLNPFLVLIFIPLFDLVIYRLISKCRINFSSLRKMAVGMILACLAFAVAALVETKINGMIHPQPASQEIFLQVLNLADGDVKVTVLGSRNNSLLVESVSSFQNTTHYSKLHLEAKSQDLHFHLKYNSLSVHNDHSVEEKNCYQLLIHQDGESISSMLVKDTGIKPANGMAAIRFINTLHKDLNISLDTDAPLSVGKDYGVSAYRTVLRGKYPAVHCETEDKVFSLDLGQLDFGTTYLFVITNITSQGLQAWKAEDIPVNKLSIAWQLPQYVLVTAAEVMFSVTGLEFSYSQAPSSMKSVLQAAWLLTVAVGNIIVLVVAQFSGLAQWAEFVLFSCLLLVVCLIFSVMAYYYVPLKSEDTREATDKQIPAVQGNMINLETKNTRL

[2] = molecular target: T2, Solute carrier family 15 member 1 (Homo sapiens, UniProt P46059); test: Displacement of [14C]Gly-Sar from human PEPT1 in Caco-2 cells; type: cell-based
T2 sequence (P46059 whole entry): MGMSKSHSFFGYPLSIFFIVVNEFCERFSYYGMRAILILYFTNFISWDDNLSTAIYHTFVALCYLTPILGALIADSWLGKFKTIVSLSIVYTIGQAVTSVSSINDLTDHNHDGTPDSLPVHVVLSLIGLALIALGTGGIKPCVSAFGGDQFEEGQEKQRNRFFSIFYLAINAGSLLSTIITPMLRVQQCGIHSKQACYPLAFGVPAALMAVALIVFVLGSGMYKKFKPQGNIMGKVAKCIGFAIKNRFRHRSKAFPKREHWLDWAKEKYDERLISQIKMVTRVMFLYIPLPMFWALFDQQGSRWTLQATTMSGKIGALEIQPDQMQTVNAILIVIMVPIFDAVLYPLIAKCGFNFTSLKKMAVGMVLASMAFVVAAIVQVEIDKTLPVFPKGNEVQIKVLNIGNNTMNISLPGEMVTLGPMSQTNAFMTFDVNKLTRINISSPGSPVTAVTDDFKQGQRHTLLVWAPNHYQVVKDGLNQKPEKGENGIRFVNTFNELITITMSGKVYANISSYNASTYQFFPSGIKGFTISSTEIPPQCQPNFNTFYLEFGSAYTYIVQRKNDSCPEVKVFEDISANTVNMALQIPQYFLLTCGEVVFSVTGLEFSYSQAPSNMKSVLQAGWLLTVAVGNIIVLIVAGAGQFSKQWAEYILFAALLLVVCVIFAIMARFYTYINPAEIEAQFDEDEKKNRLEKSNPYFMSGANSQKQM

[3] = Selectivity for rat PEPT2 over human PEPT1

Ki [1] [µM] | Ki [2] [µM] | log selectivity ratio [3] | Compound
3.7 | 20 | 0.7 | C[C@H](NC(=O)[C@H](Cc1ccccc1)NC(=O)c1ccccc1)C(=O)O
1200 | 100 | – | CC(C)C[C@H](N)C(=O)N[C@@H](C)C(=O)N[C@@H](CCCNC(=N)N)C(=O)O (H-Leu-Ala-Arg-OH)
– | – | -1.1 | CC(C)C[C@H](N)C(=O)N[C@@H](C)C(=O)N[C@@H](CCCN=C(N)N)C(=O)O (H-Leu-Ala-Arg-OH)
4 | – | 1.7 | C[C@H](NC(=O)[C@@H](N)Cc1c[nH]c2ccccc12)C(=O)O (H-Trp-Ala-OH)

Reference: ChEMBL document CHEMBL1138082, “Structural requirements for the substrates of the H+/peptide cotransporter PEPT2 determined by three-dimensional quantitative structure-activity relationship analysis” (J Med Chem, 2006)
